For three compounds, Solubility results are on record in US20030008234A1, “Optical data carrier comprising a cyanine dye as light-absorbent compound in the information layer” (priority 2001, published 2003).

The nature of the data set: Solubility in TFP (2,2,3,3-tetrafluoropropanol). The format is physicochemical.
In the case of `CCN1CCS/C1=C/c1sc2ccccc2[n+]1C`, the Solubility is 5%.

`CC(C)N(c1nn(C)/c(=N/C=C/C2=[N+](C)c3ccccc3C2(C)C)s1)C(C)C` [Example 1]: the Solubility is listed as greater than 2%.

For `CCN1CCS/C1=C/c1sc2ccccc2[n+]1C.[I-]` [Example 2], the Solubility is recorded as 5%.
